Experimental data taken from ChEMBL document CHEMBL5543142, “Discovery of YFJ-36: Design, Synthesis, and Antibacterial Activities of Catechol-Conjugated β-Lactams against Gram-Negative Bacteria” (J Med Chem, 2024).

Tests used:
Acinetobacter baumannii [1] = assay: Antibacterial activity against OXA-23 producing multidrug-resistant Acinetobacter baumannii clinical isolate 15-4 assessed as inhibition of bacterial growth incubated for 18 to 20 hrs by two fold serial dilution assay; type: functional; conditions: time 18-20 hrs
Pseudomonas aeruginosa [2] = assay: Antibacterial activity against IMP-4 producing multidrug-resistant Pseudomonas aeruginosa clinical isolate 15-4 assessed as inhibition of bacterial growth incubated for 18 to 20 hrs by two fold serial dilution assay; type: functional; conditions: time 18-20 hrs
Pseudomonas aeruginosa [3] = assay: Antibacterial activity against IMP-4 producing multidrug-resistant Pseudomonas aeruginosa clinical isolate 15-1 assessed as inhibition of bacterial growth incubated for 18 to 20 hrs by two fold serial dilution assay; type: functional; conditions: time 18-20 hrs
Acinetobacter baumannii [4] = assay: Antibacterial activity against OXA-23 producing multidrug-resistant Acinetobacter baumannii clinical isolate 15-5 assessed as inhibition of bacterial growth incubated for 18 to 20 hrs by two fold serial dilution assay; type: functional; conditions: time 18-20 hrs
Acinetobacter baumannii [5] = assay: Antibacterial activity against OXA-23 producing multidrug-resistant Acinetobacter baumannii clinical isolate 15-1 assessed as inhibition of bacterial growth incubated for 18 to 20 hrs by two fold serial dilution assay; type: functional; conditions: time 18-20 hrs
Klebsiella pneumoniae [6] = assay: Antibacterial activity against KPC-2 producing multidrug-resistant Klebsiella pneumoniae clinical isolate 15-1 assessed as inhibition of bacterial growth incubated for 18 to 20 hrs by two fold serial dilution assay; type: functional; conditions: time 18-20 hrs
Pseudomonas aeruginosa [7] = assay: Antibacterial activity against IMP-4 producing multidrug-resistant Pseudomonas aeruginosa clinical isolate 15-5 assessed as inhibition of bacterial growth incubated for 18 to 20 hrs by two fold serial dilution assay; type: functional; conditions: time 18-20 hrs
Escherichia coli [8] = assay: Antibacterial activity against ESBL-producing multidrug-resistant Escherichia coli clinical isolate 14-4 assessed as inhibition of bacterial growth incubated for 18 to 20 hrs by two fold serial dilution assay; type: functional; conditions: time 18-20 hrs
Pseudomonas aeruginosa [9] = assay: Antibacterial activity against Pseudomonas aeruginosa ATCC 27853 assessed as inhibition of bacterial growth incubated for 18 to 20 hrs by two fold serial dilution assay; type: functional; conditions: time 18-20 hrs
Klebsiella pneumoniae [10] = assay: Antibacterial activity against KPC-2 producing multidrug-resistant Klebsiella pneumoniae clinical isolate 15-2 assessed as inhibition of bacterial growth incubated for 18 to 20 hrs by two fold serial dilution assay; type: functional; conditions: time 18-20 hrs
Klebsiella pneumoniae [11] = assay: Antibacterial activity against KPC-2 producing multidrug-resistant Klebsiella pneumoniae clinical isolate 15-3 assessed as inhibition of bacterial growth incubated for 18 to 20 hrs by two fold serial dilution assay; type: functional; conditions: time 18-20 hrs
Acinetobacter baumannii [12] = assay: Antibacterial activity against OXA-23 producing multidrug-resistant Acinetobacter baumannii clinical isolate 15-3 assessed as inhibition of bacterial growth incubated for 18 to 20 hrs by two fold serial dilution assay; type: functional; conditions: time 18-20 hrs
Escherichia coli [13] = assay: Antibacterial activity against ESBL-producing multidrug-resistant Escherichia coli clinical isolate 14-1 assessed as inhibition of bacterial growth incubated for 18 to 20 hrs by two fold serial dilution assay; type: functional; conditions: time 18-20 hrs
Escherichia coli [14] = assay: Antibacterial activity against ESBL-producing multidrug-resistant Escherichia coli clinical isolate 14-2 assessed as inhibition of bacterial growth incubated for 18 to 20 hrs by two fold serial dilution assay; type: functional; conditions: time 18-20 hrs
Klebsiella pneumoniae [15] = assay: Antibacterial activity against KPC-2 producing multidrug-resistant Klebsiella pneumoniae clinical isolate 15-5 assessed as inhibition of bacterial growth incubated for 18 to 20 hrs by two fold serial dilution assay; type: functional; conditions: time 18-20 hrs
Acinetobacter baumannii [16] = assay: Antibacterial activity against OXA-23 producing multidrug-resistant Acinetobacter baumannii clinical isolate 15-2 assessed as inhibition of bacterial growth incubated for 18 to 20 hrs by two fold serial dilution assay; type: functional; conditions: time 18-20 hrs
[17] = Clearance in ICR mouse at 20 mg/kg,iv administration measured upto 6 hrs by LC-MS/MS analysis; type: ADME, organism-based; conditions: in vivo
[18] = AUC (0 to infinity) in ICR mouse at 20 mg/kg,iv administration measured upto 6 hrs by LC-MS/MS analysis; type: ADME, organism-based; conditions: in vivo
[19] = MRT in ICR mouse at 20 mg/kg,iv administration measured upto 6 hrs by LC-MS/MS analysis; type: ADME, organism-based; conditions: in vivo
[20] = Volume of distribution at steady state in ICR mouse at 20 mg/kg,iv administration measured upto 6 hrs by LC-MS/MS analysis; type: ADME, organism-based; conditions: in vivo, read-out: Vdss
[21] = Half life in ICR mouse at 20 mg/kg,iv administration measured upto 6 hrs by LC-MS/MS analysis; type: ADME, organism-based; conditions: in vivo

Row | Compound | MIC (Acinetobacter baumannii [1]) | MIC (Pseudomonas aeruginosa [2]) | MIC (Pseudomonas aeruginosa [3]) | MIC (Acinetobacter baumannii [4]) | MIC (Acinetobacter baumannii [5]) | MIC (Klebsiella pneumoniae [6]) | MIC (Pseudomonas aeruginosa [7]) | MIC (Escherichia coli [8]) | MIC (Pseudomonas aeruginosa [9]) | MIC (Klebsiella pneumoniae [10]) | MIC (Klebsiella pneumoniae [11]) | MIC (Acinetobacter baumannii [12]) | MIC (Escherichia coli [13]) | MIC (Escherichia coli [14]) | MIC (Klebsiella pneumoniae [15]) | MIC (Acinetobacter baumannii [16]) | also measured
1 | CC(C)(O/N=C(\C(=O)N[C@@H]1C(=O)N2C(C(=O)O)=C(CS[C@H]3CC[C@@H](NC(=O)c4ccc(O)c(O)c4Cl)CC3)CS[C@H]12)c1csc(N)n1)C(=O)O.O=C(O)C(F)(F)F | 32 µg/mL | 1 µg/mL | 1 µg/mL | 32 µg/mL | 32 µg/mL | 4 µg/mL | 2 µg/mL | 1 µg/mL | 8 µg/mL | 4 µg/mL | 4 µg/mL | 32 µg/mL | 0.125 µg/mL | 4 µg/mL | 8 µg/mL | 32 µg/mL | –
2 | Nc1nc(/C(=N/OC2(C(=O)O)CCC2)C(=O)N[C@@H]2C(=O)N3C(C(=O)O)=C(CSCCNC(=O)c4ccc(O)c(O)c4Cl)CS[C@H]23)cs1.O=C(O)C(F)(F)F | 32 µg/mL | 1 µg/mL | 1 µg/mL | 32 µg/mL | 32 µg/mL | 2 µg/mL | 2 µg/mL | 32 µg/mL | 2 µg/mL | 4 µg/mL | 8 µg/mL | 32 µg/mL | 0.25 µg/mL | 2 µg/mL | 4 µg/mL | 32 µg/mL | –
3 | Cl.Nc1nc(/C(=N/OC(C(=O)O)C2CCC(F)(F)CC2)C(=O)N[C@@H]2C(=O)N3C(C(=O)O)=C(CSCCNC(=O)c4ccc(O)c(O)c4Cl)CS[C@H]23)cs1 (stereo partly specified) | – | – | – | – | – | – | – | – | – | – | – | – | – | – | – | – | clearance [17]: 54 mL/min/kg; AUC(0-inf) [18]: 6340 ng·h/mL; MRT [19]: 18.6 min; Vd [20]: 0.997 L/kg; half-life [21]: 46.8 min
4 | CC(C)C(O/N=C(\C(=O)N[C@@H]1C(=O)N2C(C(=O)O)=C(CS[C@H]3CC[C@@H](NC(=O)c4ccc(O)c(O)c4Cl)CC3)CS[C@H]12)c1csc(N)n1)C(=O)O.O=C(O)C(F)(F)F (stereo partly specified) | 16 µg/mL | 2 µg/mL | 8 µg/mL | 16 µg/mL | 32 µg/mL | 2 µg/mL | 8 µg/mL | 16 µg/mL | 2 µg/mL | 2 µg/mL | 4 µg/mL | 32 µg/mL | 0.125 µg/mL | 2 µg/mL | 2 µg/mL | 16 µg/mL | –
5 | CC(C)(O/N=C(\C(=O)N[C@@H]1C(=O)N2C(C(=O)O)=C(CSCCOCCNC(=O)c3ccc(O)c(O)c3Cl)CS[C@H]12)c1csc(N)n1)C(=O)O.O=C(O)C(F)(F)F | 64 µg/mL | 1 µg/mL | 1 µg/mL | 32 µg/mL | 32 µg/mL | 8 µg/mL | 2 µg/mL | 32 µg/mL | 4 µg/mL | 4 µg/mL | 8 µg/mL | 32 µg/mL | 0.25 µg/mL | 2 µg/mL | 4 µg/mL | 32 µg/mL | –
6 | CC(C)C(O/N=C(\C(=O)N[C@@H]1C(=O)N2C(C(=O)O)=C(CSCCNC(=O)c3ccc(O)c(O)c3Cl)CS[C@H]12)c1csc(N)n1)C(=O)O.O=C(O)C(F)(F)F (stereo partly specified) | 4 µg/mL | 4 µg/mL | 2 µg/mL | 4 µg/mL | 8 µg/mL | 0.5 µg/mL | 4 µg/mL | 0.5 µg/mL | 8 µg/mL | 0.5 µg/mL | 0.5 µg/mL | 4 µg/mL | 0.06 µg/mL | 2 µg/mL | 0.25 µg/mL | 4 µg/mL | –
7 | CC(C)(C)C(O/N=C(\C(=O)N[C@@H]1C(=O)N2C(C(=O)O)=C(CSCCNC(=O)c3ccc(O)c(O)c3Cl)CS[C@H]12)c1csc(N)n1)C(=O)O.O=C(O)C(F)(F)F (stereo partly specified) | 1 µg/mL | 8 µg/mL | 4 µg/mL | 2 µg/mL | 2 µg/mL | 0.25 µg/mL | 4 µg/mL | 2 µg/mL | 4 µg/mL | 1 µg/mL | 16 µg/mL | 2 µg/mL | 0.06 µg/mL | 1 µg/mL | 0.5 µg/mL | 1 µg/mL | –
